In ChEMBL document CHEMBL1201862, “PubChem BioAssay data set” (2004):
The source made the active and inactive calls.

Experiments:
[1] = biological target: Dual specificity protein phosphatase 3 (Homo sapiens, UniProt P51452); assay: SAR VHR1 Fluorescent Assay for In Vitro dose response studies Set 3. [Related pubchem assays (depositor defined):AID1654, AID1661, AID1878]; format: functional
[2] = biological target: T1, Intestinal-type alkaline phosphatase (Homo sapiens, UniProt P09923); assay: activation of human intestinal alkaline phosphatase – biochemical, luminescent, uHTS hits, set 2, dose response (AID 488817); format: functional;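 also: potency of activators that raise enzyme activity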
[3] = biological target: T1, Intestinal-type alkaline phosphatase; assay: human intestinal alkaline phosphatase activators, dose response, biochemical, luminescence, uHTS hits (AID 463120); format: functional
[4] = biological target: T2, Alkaline phosphatase, tissue-nonspecific isozyme (Homo sapiens, UniProt P05186); assay: activation of tissue-nonspecific alkaline phosphatase – biochemical, TNAP isozyme, human IAP uHTS hits, selectivity assay for human IAP activator project, dose response (AID 488886); format: functional;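 also: potency of compounds raising TNAP activity as a selectivity check on IAP activators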
T2 sequence (P05186 whole entry): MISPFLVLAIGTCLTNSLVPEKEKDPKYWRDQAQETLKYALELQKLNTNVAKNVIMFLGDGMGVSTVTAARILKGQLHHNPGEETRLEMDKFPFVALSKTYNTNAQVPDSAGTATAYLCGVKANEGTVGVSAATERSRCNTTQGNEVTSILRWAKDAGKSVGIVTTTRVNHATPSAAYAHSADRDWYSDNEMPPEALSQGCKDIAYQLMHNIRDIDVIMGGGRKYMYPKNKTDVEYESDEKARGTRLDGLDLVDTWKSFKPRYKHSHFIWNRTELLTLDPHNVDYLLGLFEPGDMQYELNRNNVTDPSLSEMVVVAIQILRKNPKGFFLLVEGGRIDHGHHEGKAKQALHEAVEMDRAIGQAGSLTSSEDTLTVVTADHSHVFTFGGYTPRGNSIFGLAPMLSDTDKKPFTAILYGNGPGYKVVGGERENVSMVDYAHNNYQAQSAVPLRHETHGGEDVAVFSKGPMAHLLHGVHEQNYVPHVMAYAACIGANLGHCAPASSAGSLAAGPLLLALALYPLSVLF

[5] = biological target: T3, Intestinal-type alkaline phosphatase (Mus musculus, UniProt P24822); assay: PubChem AID 488875; format: functional
[6] = biological target: G-protein coupled receptor 55 (Homo sapiens, UniProt Q9Y2T6); assay: blockers of GPR55 signalling, imaged – imaging, image-based, counter-screen for GPR35 antagonist project, SAR follow-up (AID 2397); format: functional
Cytochrome P450 3A4 = Cytochrome P450 3A4 (Homo sapiens, UniProt P08684);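 also: CYP3A4 tested as one member of a cytochrome P450 panel screen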
[7] = Luminescence Cell-Based Dose Retest to Confirm Inhibitors of Cancer Stem Cells. [Related pubchem assays (depositor defined):AID2717, AID2721]; format: functional; conditions: Homo sapiens
[8] = viability loss of HMLE_sh_eGFP cells – cell-based, luminescence, counter-screen for HMLE_sh_ECad selective toxicity project, dose response (AID 463074); format: functional, Homo sapiens;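 also: HMLE human mammary epithelial cells expressing control shRNA against eGFP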
[9] = biological target: T4, RNA-binding protein pos-1 (Caenorhabditis elegans, UniProt G5EF15); assay: disruptors of C. elegans POS-1 RNA interaction – biochemical, fluorescence polarization, dose response (AID 1964);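 also: purified POS-1 fused to maltose binding protein made in E. coli; potency of compounds blocking POS-1 binding to fluorescent RNA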
T4 sequence (G5EF15 whole entry): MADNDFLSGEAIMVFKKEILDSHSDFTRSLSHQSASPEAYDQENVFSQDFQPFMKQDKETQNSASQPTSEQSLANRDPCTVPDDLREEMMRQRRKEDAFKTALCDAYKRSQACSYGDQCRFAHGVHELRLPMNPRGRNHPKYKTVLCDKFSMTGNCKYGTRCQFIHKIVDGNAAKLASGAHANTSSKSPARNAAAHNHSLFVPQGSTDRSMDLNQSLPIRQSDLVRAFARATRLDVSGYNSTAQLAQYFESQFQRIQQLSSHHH

[10] = biological target: T5, Zinc finger protein mex-5 (Caenorhabditis elegans, UniProt Q9XUB2); assay: potency of MEX-5 RNA-binding blockers – biochemical, C. elegans, fluorescence polarization, dose response (AID 1960)
T5 sequence (Q9XUB2 whole entry): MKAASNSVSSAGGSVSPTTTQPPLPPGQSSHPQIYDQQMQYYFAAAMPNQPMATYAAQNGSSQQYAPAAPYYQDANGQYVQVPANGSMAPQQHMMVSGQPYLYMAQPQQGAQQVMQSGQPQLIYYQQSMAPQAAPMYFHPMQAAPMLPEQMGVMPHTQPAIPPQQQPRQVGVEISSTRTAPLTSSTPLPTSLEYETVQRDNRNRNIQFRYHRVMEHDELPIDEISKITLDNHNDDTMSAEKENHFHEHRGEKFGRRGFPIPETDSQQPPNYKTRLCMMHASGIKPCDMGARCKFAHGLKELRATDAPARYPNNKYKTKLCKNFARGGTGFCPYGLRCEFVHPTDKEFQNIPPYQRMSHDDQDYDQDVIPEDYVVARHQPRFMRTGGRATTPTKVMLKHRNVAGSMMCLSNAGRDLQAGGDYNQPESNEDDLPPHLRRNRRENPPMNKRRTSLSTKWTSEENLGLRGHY

[11] = biological target: UDP-galactopyranose mutase (Mycobacterium tuberculosis, UniProt P9WIQ1); assay: Inhibitors of Mycobacterium tuberculosis UDP-galactopyranose mutase (UGM) enzyme Measured in Biochemical System Using Plate Reader - 2105-02_Inhibitor_Dose_CherryPick_Activity. [Related pubchem assays (depositor defined):AID504439]
MDCK [12] = assay: antiviral activity against H1N1 influenza, dose response, cell-based, strain KY180 (AID 540254); format: functional; conditions: Canis lupus familiaris
MDCK [13] = assay: MDCK cell cytotoxicity, dose response, cytotoxicity control (AID 540296); format: functional; conditions: Canis lupus familiaris
[14] = biological target: T6, Dual specificity protein phosphatase 6 (Rattus norvegicus, UniProt Q64346)
[15] = biological target: Heat shock cognate 71 kDa protein (Homo sapiens, UniProt P11142); assay: In Vitro Hsc70 Dose Response Fluorescence Polarization Assay. [Related pubchem assays: 1072 ]
[16] = biological target: T7, Tyrosine-protein phosphatase non-receptor type 7 (Homo sapiens, UniProt P35236); format: functional
T7 sequence (P35236 whole entry): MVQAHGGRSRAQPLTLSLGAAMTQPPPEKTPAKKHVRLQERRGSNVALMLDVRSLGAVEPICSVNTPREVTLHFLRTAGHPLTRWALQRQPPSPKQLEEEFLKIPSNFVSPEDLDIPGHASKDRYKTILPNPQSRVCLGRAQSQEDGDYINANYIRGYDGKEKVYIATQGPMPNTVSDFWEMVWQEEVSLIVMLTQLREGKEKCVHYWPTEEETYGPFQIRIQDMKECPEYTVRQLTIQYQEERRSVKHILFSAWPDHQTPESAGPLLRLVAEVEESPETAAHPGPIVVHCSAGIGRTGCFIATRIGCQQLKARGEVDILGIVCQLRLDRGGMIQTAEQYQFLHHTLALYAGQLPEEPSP

[17] = biological target: T6, Dual specificity protein phosphatase 6; format: functional
[18] = biological target: Glyceraldehyde-3-phosphate dehydrogenase (Homo sapiens, UniProt P04406)
[19] = biological target: Heat shock 70 kDa protein 1A (Homo sapiens, UniProt P0DMV8); assay: inhibition of Hsp70 binding activity – biochemical, fluorescence polarization, SAR follow-up (AID 1072)
[20] = Luminescence Cell-Based Dose Response HTS to Identify Inhibitors of 5'UTR Stem-Loop Driven Prion Protein mRNA Translation in H4 Neuroglioblastoma Cells. [Related pubchem assays: 1827 (Project Summary), 1813 (Primary HTS)]; format: functional
[21] = Counterscreen for AddAB inhibitors: absorbance-based bacterial cell-based high throughput dose response assay for inhibitors of bacterial viability. [Related pubchem assays (depositor defined):AID435030, AID449728, AID449731, AID488942, AID488955, AID488956]; format: functional
Exodeoxyribonuclease V = Exodeoxyribonuclease V (Escherichia coli (strain K12), UniProt P04993+P07648+P08394); assay: RecBCD inhibition via phage-restricted bacterial growth – absorbance, V66 E. coli, mutant T4 phage, counter-screen for AddAB inhibitor project, dose response (AID 492957); format: functional, cell-based, Escherichia coli str. K-12 substr. MG1655
[22] = luciferase reporter signal suppression in cells – H4 neuroglioma cells, luminescence, dose response (AID 1990); format: functional, cell-based
[23] = alpha-synuclein stem-loop luciferase translation blockers – H4 neuroglioma cells, luminescence, confirmation (AID 1988); format: functional, cell-based
[24] = biological target: Lysine-specific demethylase 4C (Homo sapiens, UniProt Q9H3R0); assay: inhibition of JMJD2C H3K9me3 demethylation – biochemical, DELFIA europium, cherry-picked samples, dose response (AID 488835); format: functional
[25] = biological target: T1, Intestinal-type alkaline phosphatase; assay: activation of human intestinal alkaline phosphatase – biochemical, dose response (AID 488873); format: functional
[26] = biological target: T8, Mannose-6-phosphate isomerase (Homo sapiens, UniProt P34949); assay: MPI inhibition at elevated mannose 6-phosphate – biochemical, fluorescence intensity, high mannose 6-phosphate, primary screen (AID 1220)
T8 sequence (P34949 whole entry): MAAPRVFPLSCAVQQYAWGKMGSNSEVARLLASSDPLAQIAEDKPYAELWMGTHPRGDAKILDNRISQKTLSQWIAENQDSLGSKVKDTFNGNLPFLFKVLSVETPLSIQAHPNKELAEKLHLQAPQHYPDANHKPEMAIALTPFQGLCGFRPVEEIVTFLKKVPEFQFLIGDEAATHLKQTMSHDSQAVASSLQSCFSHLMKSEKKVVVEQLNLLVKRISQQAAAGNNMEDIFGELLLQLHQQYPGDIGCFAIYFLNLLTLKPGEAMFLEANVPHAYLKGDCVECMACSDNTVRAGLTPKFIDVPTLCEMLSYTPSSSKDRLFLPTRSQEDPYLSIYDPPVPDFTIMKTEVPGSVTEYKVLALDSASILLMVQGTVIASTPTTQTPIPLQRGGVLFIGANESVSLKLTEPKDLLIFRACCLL

[27] = biological target: T3, Intestinal-type alkaline phosphatase; assay: mouse intestinal alkaline phosphatase activators, dose response, biochemical, luminescence, uHTS hits (AID 488783); format: functional
[28] = biological target: T2, Alkaline phosphatase, tissue-nonspecific isozyme; assay: activation of tissue-nonspecific alkaline phosphatase – biochemical, TNAP isozyme, mouse IAP uHTS hits, selectivity assay for mouse IAP activator project, dose response (AID 488880); format: functional
Estrogen receptor beta = Estrogen receptor beta (Homo sapiens, UniProt Q92731); assay: blockers of SRC-3 recruitment to ERβ – biochemical, ELISA, streptavidin-HRP readout, orthogonal assay, confirmation (AID 1060)
[29] = biological target: T9, Kappa-type opioid receptor (Homo sapiens, UniProt P41145); assay: kappa opioid receptor activation by imaging – image-based, set 3, SAR follow-up (AID 488833); format: functional
[30] = biological target: T9, Kappa-type opioid receptor; assay: SAR analysis of small molecule agonists of the kappa opioid receptor via a luminescent beta-arrestin assay - Set 3. [Related pubchem assays (depositor defined):AID1777, AID1785, AID1786, AID1966, AID2133, AID2136, AID2284, AID2500]; format: functional
[31] = biological target: Delta-type opioid receptor (Homo sapiens, UniProt P41143); assay: SAR Analysis of Agonists of the DOR Receptor using an Image-Based Assay - Set 3. [Related pubchem assays (depositor defined):AID1777, AID1786]; format: functional
Mu-type opioid receptor = Mu-type opioid receptor (Homo sapiens, UniProt P35372); assay: SAR Analysis of Agonists of the MOR Receptor using an Image-Based Assay - Set 3. [Related pubchem assays (depositor defined):AID1777, AID1785, AID1786, AID1966, AID2133, AID2136, AID2284, AID2285, AID2352]; format: functional
Mu-type opioid receptor, sequence (P35372 whole entry): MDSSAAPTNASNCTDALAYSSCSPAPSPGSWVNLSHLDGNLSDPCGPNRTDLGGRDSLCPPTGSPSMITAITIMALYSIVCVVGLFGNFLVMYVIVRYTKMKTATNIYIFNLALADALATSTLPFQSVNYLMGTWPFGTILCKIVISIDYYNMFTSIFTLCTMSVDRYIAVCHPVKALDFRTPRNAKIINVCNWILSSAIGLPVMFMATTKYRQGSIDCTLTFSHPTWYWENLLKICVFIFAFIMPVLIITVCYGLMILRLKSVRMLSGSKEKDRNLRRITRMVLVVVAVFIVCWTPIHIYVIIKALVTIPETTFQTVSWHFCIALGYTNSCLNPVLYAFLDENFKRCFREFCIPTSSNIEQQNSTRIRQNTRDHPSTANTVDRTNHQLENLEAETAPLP

T1 sequence (P09923 whole entry): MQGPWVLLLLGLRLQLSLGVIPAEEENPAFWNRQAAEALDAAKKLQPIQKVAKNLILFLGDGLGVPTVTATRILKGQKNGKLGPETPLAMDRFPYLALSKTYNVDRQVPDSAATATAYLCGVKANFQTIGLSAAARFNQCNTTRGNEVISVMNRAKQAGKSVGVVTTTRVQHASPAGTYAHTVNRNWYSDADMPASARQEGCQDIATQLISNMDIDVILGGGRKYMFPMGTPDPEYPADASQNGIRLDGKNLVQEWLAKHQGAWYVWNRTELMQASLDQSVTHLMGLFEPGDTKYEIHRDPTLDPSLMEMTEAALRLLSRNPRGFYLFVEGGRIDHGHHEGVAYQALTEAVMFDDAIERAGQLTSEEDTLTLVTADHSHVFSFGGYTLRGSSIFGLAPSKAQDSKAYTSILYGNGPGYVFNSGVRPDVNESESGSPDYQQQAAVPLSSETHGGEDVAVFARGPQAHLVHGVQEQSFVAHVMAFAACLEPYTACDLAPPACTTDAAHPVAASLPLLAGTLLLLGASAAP
T3 sequence (P24822 whole entry): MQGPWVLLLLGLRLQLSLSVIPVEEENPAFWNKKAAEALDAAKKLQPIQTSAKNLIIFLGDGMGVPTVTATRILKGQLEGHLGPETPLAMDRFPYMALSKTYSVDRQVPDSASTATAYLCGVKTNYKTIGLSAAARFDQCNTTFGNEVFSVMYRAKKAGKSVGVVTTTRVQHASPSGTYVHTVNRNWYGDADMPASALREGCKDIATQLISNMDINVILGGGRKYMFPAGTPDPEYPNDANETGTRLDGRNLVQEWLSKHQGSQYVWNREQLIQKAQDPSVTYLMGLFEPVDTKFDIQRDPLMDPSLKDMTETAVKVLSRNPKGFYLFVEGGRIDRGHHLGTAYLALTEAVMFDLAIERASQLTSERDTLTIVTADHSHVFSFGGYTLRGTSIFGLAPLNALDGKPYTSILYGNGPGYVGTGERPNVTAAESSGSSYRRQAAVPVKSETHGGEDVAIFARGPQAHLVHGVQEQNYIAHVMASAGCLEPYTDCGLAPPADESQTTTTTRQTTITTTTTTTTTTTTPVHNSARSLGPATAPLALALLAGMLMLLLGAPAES
Cytochrome P450 3A4, sequence (P08684 whole entry): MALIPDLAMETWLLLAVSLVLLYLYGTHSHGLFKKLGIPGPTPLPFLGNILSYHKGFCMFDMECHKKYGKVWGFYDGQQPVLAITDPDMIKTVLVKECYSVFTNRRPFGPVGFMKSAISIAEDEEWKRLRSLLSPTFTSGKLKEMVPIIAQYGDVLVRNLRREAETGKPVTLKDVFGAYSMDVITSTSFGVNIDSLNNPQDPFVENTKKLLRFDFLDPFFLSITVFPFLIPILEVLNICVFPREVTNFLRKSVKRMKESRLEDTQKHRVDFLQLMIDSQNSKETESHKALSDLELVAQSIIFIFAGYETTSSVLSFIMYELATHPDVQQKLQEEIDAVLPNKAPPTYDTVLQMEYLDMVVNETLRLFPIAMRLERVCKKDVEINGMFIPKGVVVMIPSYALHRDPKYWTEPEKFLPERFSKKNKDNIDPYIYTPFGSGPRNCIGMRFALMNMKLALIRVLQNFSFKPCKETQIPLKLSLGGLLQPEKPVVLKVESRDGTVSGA
T6 sequence (Q64346 whole entry): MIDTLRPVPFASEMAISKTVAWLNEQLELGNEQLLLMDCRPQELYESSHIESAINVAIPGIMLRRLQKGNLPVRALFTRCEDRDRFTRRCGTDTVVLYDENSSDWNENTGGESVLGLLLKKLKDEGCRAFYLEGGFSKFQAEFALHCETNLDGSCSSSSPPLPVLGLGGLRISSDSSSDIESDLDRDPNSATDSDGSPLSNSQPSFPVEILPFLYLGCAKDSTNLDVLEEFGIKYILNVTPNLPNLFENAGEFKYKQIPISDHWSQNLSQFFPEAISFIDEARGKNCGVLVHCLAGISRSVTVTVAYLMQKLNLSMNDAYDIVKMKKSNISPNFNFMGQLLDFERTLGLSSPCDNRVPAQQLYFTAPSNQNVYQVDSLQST
T9 sequence (P41145 whole entry): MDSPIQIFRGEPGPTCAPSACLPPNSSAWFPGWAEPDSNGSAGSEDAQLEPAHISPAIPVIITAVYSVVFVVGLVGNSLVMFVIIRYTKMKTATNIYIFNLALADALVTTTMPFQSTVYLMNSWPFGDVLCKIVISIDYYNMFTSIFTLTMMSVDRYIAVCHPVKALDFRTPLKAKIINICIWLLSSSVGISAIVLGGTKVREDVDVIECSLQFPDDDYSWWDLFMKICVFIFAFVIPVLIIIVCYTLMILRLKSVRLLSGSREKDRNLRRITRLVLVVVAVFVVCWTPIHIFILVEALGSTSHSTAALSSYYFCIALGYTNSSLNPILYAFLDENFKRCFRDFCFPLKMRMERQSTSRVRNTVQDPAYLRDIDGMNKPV
G-protein coupled receptor 55, sequence (Q9Y2T6 whole entry): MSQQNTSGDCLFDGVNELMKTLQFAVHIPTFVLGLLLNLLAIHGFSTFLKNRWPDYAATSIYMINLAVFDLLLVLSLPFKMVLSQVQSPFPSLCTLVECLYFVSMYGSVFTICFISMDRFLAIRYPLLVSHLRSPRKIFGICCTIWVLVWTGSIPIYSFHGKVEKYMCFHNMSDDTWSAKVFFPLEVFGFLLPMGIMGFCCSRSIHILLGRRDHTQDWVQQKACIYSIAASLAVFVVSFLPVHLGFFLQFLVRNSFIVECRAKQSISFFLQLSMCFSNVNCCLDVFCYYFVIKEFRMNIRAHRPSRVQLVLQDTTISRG
Dual specificity protein phosphatase 3, sequence (P51452 whole entry): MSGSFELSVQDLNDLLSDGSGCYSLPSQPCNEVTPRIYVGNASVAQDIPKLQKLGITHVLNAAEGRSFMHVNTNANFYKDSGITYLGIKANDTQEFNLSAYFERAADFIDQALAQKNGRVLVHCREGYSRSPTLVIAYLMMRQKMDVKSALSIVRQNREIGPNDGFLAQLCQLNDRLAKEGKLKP
Delta-type opioid receptor, sequence (P41143 whole entry): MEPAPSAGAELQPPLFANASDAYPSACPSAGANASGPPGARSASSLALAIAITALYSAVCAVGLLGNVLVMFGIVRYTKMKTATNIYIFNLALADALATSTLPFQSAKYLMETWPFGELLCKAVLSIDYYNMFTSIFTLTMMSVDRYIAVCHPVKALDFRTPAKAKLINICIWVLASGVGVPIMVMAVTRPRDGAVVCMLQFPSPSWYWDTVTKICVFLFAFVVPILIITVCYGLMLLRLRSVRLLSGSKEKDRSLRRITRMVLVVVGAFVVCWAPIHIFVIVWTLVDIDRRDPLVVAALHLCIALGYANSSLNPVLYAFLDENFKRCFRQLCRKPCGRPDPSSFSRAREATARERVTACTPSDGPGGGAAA
Heat shock cognate 71 kDa protein, sequence (P11142 whole entry): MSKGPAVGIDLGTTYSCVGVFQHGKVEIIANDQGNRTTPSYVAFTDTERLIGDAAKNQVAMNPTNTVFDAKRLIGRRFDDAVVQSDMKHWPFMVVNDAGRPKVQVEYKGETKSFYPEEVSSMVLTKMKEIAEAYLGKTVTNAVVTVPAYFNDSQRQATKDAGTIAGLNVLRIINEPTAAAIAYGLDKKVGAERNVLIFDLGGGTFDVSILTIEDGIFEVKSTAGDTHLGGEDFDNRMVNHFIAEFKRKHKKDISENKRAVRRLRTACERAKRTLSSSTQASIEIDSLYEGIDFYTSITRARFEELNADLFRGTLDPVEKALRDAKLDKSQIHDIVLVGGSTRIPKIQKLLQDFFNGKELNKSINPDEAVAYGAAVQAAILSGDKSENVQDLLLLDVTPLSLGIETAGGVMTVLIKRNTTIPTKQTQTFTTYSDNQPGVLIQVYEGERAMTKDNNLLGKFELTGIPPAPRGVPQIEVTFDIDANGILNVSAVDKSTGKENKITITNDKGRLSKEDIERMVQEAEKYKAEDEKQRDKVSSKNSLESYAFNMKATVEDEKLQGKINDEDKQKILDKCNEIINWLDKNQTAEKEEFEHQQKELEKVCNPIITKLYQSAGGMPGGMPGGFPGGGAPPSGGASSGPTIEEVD
UDP-galactopyranose mutase, sequence (P9WIQ1 whole entry): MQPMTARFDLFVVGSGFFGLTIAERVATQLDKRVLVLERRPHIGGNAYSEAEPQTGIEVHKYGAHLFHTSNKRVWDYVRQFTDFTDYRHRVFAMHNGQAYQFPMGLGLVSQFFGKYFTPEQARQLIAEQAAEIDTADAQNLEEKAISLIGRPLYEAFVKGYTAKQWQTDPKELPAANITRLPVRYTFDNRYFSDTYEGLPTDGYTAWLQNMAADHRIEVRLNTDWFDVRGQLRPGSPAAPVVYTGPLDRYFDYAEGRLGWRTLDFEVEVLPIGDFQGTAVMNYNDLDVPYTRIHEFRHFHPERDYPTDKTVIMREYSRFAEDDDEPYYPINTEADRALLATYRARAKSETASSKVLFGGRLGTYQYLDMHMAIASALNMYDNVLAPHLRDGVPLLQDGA

SMILES: Cc1c(NC(=O)c2cc(-n3cnnc3)ccc2Cl)cccc1-c1nc2ccccc2s1
- IC50 [1]: 18.3 µM (active)

SMILES: CCOc1cccc(-c2nc(C(N)=O)c3nc(O)n(-c4cccc(Cl)c4)c3n2)c1O
- EC50 [2]: 3.66 µM (active)
- EC50 [3]: 4.9 µM (active)
- EC50 [4]: 2.41 µM (active)
- EC50 [5]: > 100 µM (inactive)

SMILES: COc1ccc(-c2nnc(-c3cccnc3)o2)cc1
- IC50 [6]: > 32 µM (inactive)
- AC50 (Cytochrome P450 3A4): 1.58 µM (inconclusive)

SMILES: O=C(COc1ccccc1Cl)Nc1cc(Cl)ccc1Oc1ccccc1
- AC50 [7]: 3.01 µM (active)
- AC50 [8]: 120 µM (active)
- AC50 (Cytochrome P450 3A4): 15.8 µM (inconclusive)

SMILES: NC(=O)Cn1cc(C=C2C(=O)NC(=O)NC2=O)c2ccccc21
- EC50 [9]: > 300 µM (inconclusive)
- EC50 [10]: > 300 µM (inconclusive)
- AC50 [11]: 82.3 µM (active)

SMILES: CC(c1ccccn1)N(CCN(C)C)C(S)=Nc1cccc(F)c1 (stereo unspecified)
- IC50 (MDCK [12]): 64.7 µM (active)
- CC50 (MDCK [13]): > 40 µM (active)

SMILES: Cc1ccc(C)c2c1NC(C(=O)O)C1CC=CC21 (stereo unspecified)
- IC50 [14]: > 100 µM (inactive)
- IC50 [15]: > 100 µM (not active)
- IC50 [16]: > 100 µM (not active)
- IC50 [17]: > 100 µM (inactive)
- IC50 [18]: > 100 µM (not active)
- IC50 [19]: > 100 µM (not active)

SMILES: CCCNC(=O)c1ccc2c(O)c(O)c(-c3ccsc3)nc2c1
- EC50 [20]: 10.6 µM (active)
- IC50 [21]: > 118 µM (inactive)
- IC50 (Exodeoxyribonuclease V): > 118 µM (inactive)
- EC50 [22]: 11.7 µM (active)
- EC50 [23]: 8.96 µM (active)

SMILES: COc1ccc(NC(=O)C2CCCCN2N)cc1OCC(C)C (stereo unspecified)
- AC50 [24]: 27.6 µM (active)

SMILES: Oc1ccc2cc3c4cc(Br)ccc4nc-3oc2c1O
- EC50 [25]: 21.2 µM (active)
- IC50 [26]: 30 µM (active)
- EC50 [27]: 22.1 µM (active)
- EC50 [28]: 24 µM (active)
- IC50 (Estrogen receptor beta): 5.38 µM (not active)

SMILES: CC(C)c1ccc(CSc2nnc(-c3ccccn3)n2Cc2ccco2)cc1
- EC50 [29]: 2.84 µM (active)
- EC50 [30]: 5.97 µM (active)
- EC50 [31]: > 64 µM (inactive)
- EC50 (Mu-type opioid receptor): > 32 µM (inactive)
